In patent US7297708B2, “Heteroaromatic substituted cyclopropane as corticotropin releasing hormone ligands” (Bristol-Myers Squibb Company, priority 2001, dated 2007):

SMILES: COc1ccccc1C1(c2ncc(C)c(-c3ccc(Cl)cc3Cl)n2)CC1 [Compound 11, 4-(2,4-Dichloro-phenyl)-2-[1-(2-methoxy-phenyl)-cyclopropyl]-5-methyl-pyrimidine]
- melting point: 46 to 48 °C
